21 compounds from US11384078B2, “5,6-fused-bicyclic compounds and compositions for the treatment of parasitic diseases” (NOVARTIS AG, priority 2017, dated 2022) can be followed below.

What all share (type): cell-based
The subject of assay [1] is L. donovani HU3 strain in mouse peritoneal macrophages. Kind of assay: Assay for inhibition of parasitemia of Leishmania donovani in mouse macrophages (SYBR Green nuclei count, high-content imaging). As to conditions: Leishmania donovani, Peritoneal macrophage, L. donovani in mouse peritoneal macrophages; read-out: L. donovani in Mouse Macrophages EC50. A digest of the protocol:
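Parasite numbers were counted from SYBR Green-stained nuclei imaged by high-content microscopy after paraformaldehyde fixation and Triton permeabilization. Before this, compound was applied for 5 days at 37° C to BALB/c peritoneal macrophages (2×10^4/well) that had been exposed 24 h to 4×10^5 L. donovani HU3 amastigotes harvested from infected mouse spleens.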

The subject of assay [2] is Trypanosoma cruzi amastigotes cultured in 3T3 fibroblast cells. The experiment in a line: Assay for growth inhibition of kinetoplastid parasite Trypanosoma cruzi (beta-galactosidase Tulahuen strain, CPRG readout). Particulars: Trypanosoma cruzi, Fibroblast, T. cruzi amastigotes in 3T3 fibroblast cells; read-out: Buckner infectious T. cruzi EC50. In outline: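 3T3 fibroblasts (1,000 cells/well) plated overnight, treated with compound in DMSO, then infected with 10,000 Lac-Z-expressing Tulahuen trypomastigotes. After 6 days, 0.6 mM CPRG with 0.6% NP-40 added for 2 h at room temperature; absorbance gives relative intracellular amastigote numbers. Benznidazole and nifurtimox serve as positive controls.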

The test system of assay [3] is Trypanosoma brucei brucei (Lister 427) strain. Kind of assay: Assay for growth inhibition against Trypanosoma brucei brucei (Cell TiterGlo ATP luminescence). As to conditions: Trypanosoma brucei, T. brucei brucei (Lister 427); read-out: T. Brucei (HAT) EC50. In outline:
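Growth read-out is cellular ATP by CellTiter-Glo luminescence, measured 30 min after reagent addition, following 2-day incubation at 37 °C in CO2. Parasites (10,000/mL, HMI-9 plus 10% FBS and 10% serum plus) faced 10 threefold dilutions in duplicate; IC50 taken as 50% growth inhibition versus untreated.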
Background: In ATP-based viability assays light output follows the ATP content of the culture.

Assay [4] relates to Leishmania donovani axenic amastigote. Kind of assay: In vitro assay for growth inhibition of Leishmania donovani axenic amastigote (Cell TiterGlo luminescence). As to conditions: Leishmania donovani, L. donovani axenic amastigotes in vitro; read-out: L. donovani amastigotes EC50. A digest of the protocol:
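Compound-treated wells received 9600 axenic amastigotes in RPMI 1640-based medium at pH 5.5 (37 °C, 5% CO2). Growth measured as ATP luminescence (CellTiter-Glo) after 2-day incubation; DMSO and reference compounds served as controls.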

As for `O=C(Nc1ccc(F)c(-n2cc3cc(N4C5COCC4C5)cnc3n2)c1)N1CC(F)C1` [Compound 263, 3-fluoro-N-[4-fluoro-3-(5-{3-oxa-6-azabicyclo[3.1.1]heptan-6-yl}-2H-pyrazolo[3,4-b]pyridin-2-yl)phenyl]azetidine-1-carboxamide], the EC50 in assay [1] was found to be 68 nM; in assay [2], 45 nM; in assay [3] it was 10 nM; in assay [4], 12 nM.

For the compound `O=C(Nc1ccc(F)c(-n2cc3cc(-c4ncccc4Cl)cnc3n2)c1)N1CCC1` [Compound 315, N-{3-[5-(3-chloropyridin-2-yl)-2H-pyrazolo[3,4-b]pyridin-2-yl]-4-fluorophenyl}azetidine-1-carboxamide], the EC50 amounted to 2 nM in assay [1], 1 nM in assay [2], 5 nM in assay [3] and 2 nM in assay [4].

`O=C(Nc1ccc(F)c(-n2cc3cc(C4CCOCC4)cnc3n2)c1)N1CC[C@@H](F)C1` [Compound 150, (R)-3-fluoro-N-(4-fluoro-3-(5-(tetrahydro-2H-pyran-4-yl)-2H-pyrazolo[3,4-b]pyridin-2-yl)phenyl)pyrrolidine-1-carboxamide]: the EC50 in assay [1] was 25 nM; in assay [2] it was 21 nM; in assay [3] it was less than 23 nM; in assay [4] it was 14 nM.

`CC(C)c1cnc2nn(-c3cc(NC(=O)CC4CCC4)ccc3F)cc2c1` [Compound 216, 2-cyclobutyl-N-{4-fluoro-3-[5-(propan-2-yl)-2H-pyrazolo[3,4-b]pyridin-2-yl]phenyl}acetamide]: the EC50 was 4670 nM in assay [1], 435 nM in assay [2], 620 nM in assay [3] and 3700 nM in assay [4].

On to `CCC(C)(C)c1cnc2nn(-c3cc(NC(=O)N4CC(F)(F)C4)ccc3F)cc2c1` [Compound 35, 3,3-difluoro-N-{4-fluoro-3-[5-(2-methylbutan-2-yl)-2H-pyrazolo[3,4-b]pyridin-2-yl]phenyl}azetidine-1-carboxamide], for which the EC50 came out at 520 nM in assay [1], 380 nM in assay [2], 850 nM in assay [3] and 580 nM in assay [4].

Take `CC(C)CCc1cnc2nn(-c3cc(NC(=O)N4CCC4)ccc3F)cc2c1` [Compound 98, N-{4-fluoro-3-[5-(3-methylbutyl)-2H-pyrazolo[3,4-b]pyridin-2-yl]phenyl}azetidine-1-carboxamide]: the EC50 in assay [1] is 23 nM; in assay [2] it was 15 nM; in assay [3], less than 23 nM; in assay [4], 25 nM.

In the case of `O=C(Nc1ccc(F)c(-n2cc3cc(-c4ncccc4F)cnc3n2)c1)C1CC1` [Compound 332, N-{4-fluoro-3-[5-(3-fluoropyridin-2-yl)-2H-pyrazolo[3,4-b]pyridin-2-yl]phenyl}cyclopropanecarboxamide], the EC50 in assay [1] was found to be 75 nM; in assay [2] it was 15 nM; in assay [3] it was 38 nM; in assay [4], 28 nM.

In the case of `CC1(C)C=C(C(=O)Nc2ccc(F)c(-n3cc4cc(-c5ccccn5)cnc4n3)c2)C1` [Compound 347, N-{4-fluoro-3-[5-(pyridin-2-yl)-2H-pyrazolo[3,4-b]pyridin-2-yl]phenyl}-3,3-dimethylcyclobut-1-ene-1-carboxamide], the EC50 was 15 nM in assay [1], 2 nM in assay [2], 7 nM in assay [3] and 7 nM in assay [4].

As to `CC(C)c1cnc2nn(-c3cc(NC(=O)C4CC4C)ccc3F)cc2c1` (stereo not drawn) [Compound 211, N-{4-fluoro-3-[5-(propan-2-yl)-2H-pyrazolo[3,4-b]pyridin-2-yl]phenyl}-2-methylcyclopropane-1-carboxamide], the 50% effective concentration (EC50) was determined as 302 nM in assay [1], 72 nM in assay [2], 35 nM in assay [3] and 496 nM in assay [4].

Consider `Cc1nccnc1-c1cnc2nn(-c3cc(NC(=O)N4CC(F)C4)ccc3F)cc2c1` [Compound 312, 3-fluoro-N-{4-fluoro-3-[5-(3-methylpyrazin-2-yl)-2H-pyrazolo[3,4-b]pyridin-2-yl]phenyl}azetidine-1-carboxamide], for which the EC50 in assay [1] is 2 nM; in assay [2] it was 4 nM; in assay [3], 33 nM; in assay [4] it was 3 nM.

Turning to `CNC(=O)Nc1ccc(F)c(-n2cc3cc(NC)cnc3n2)c1` [Compound 142, 1-{4-fluoro-3-[5-(methylamino)-2H-pyrazolo[3,4-b]pyridin-2-yl]phenyl}-3-methylurea], the EC50 worked out at 9200 nM in assay [1], 11000 nM in assay [2], 4300 nM in assay [3] and 7800 nM in assay [4].

With `O=C(Nc1ccc(F)c(-n2cc3cc(N4CC5(CC5)C4)cnc3n2)c1)N1CC(F)(F)C1` [Compound 258, N-[3-(5-{5-azaspiro[2.3]hexan-5-yl}-2H-pyrazolo[3,4-b]pyridin-2-yl)-4-fluorophenyl}-3,3-difluoroazetidine-1-carboxamide], the EC50 was 39 nM in assay [1], 12 nM in assay [2], 28 nM in assay [3] and 23 nM in assay [4].

In the case of `Cc1nc(C)c(C(=O)Nc2ccc(F)c(-n3cc4cc(C(C)(C)C)cnc4n3)c2)o1` [Compound 103, N-(3-{5-tert-butyl-2H-pyrazolo[3,4-b]pyridin-2-yl}-4-fluorophenyl)-2,4-dimethyl-1,3-oxazole-5-carboxamide], the EC50 in assay [1] stood at 400 nM; in assay [2], 150 nM; in assay [3], 310 nM; in assay [4] it was 680 nM.

In the case of `O=C(Nc1ccc(F)c(-n2cc3cc(C4CCC4)cnc3n2)c1)N1CC(F)C1` [Compound 20, N-(3-{5-cyclobutyl-2H-pyrazolo[3,4-b]pyridin-2-yl}-4-fluorophenyl)-3-fluoroazetidine-1-carboxamide], the EC50 in assay [1] was 37 nM; in assay [2], 4.2 nM; in assay [3] it was less than 23 nM; in assay [4], 10 nM.

For `CC1(C)CN(c2cnc3nn(-c4cc(NC(=O)N5CC(F)C5)ccc4F)cc3c2)C1` [Compound 255, N-{3-[5-(3,3-dimethylazetidin-1-yl)-2H-pyrazolo[3,4-b]pyridin-2-yl]-4-fluorophenyl}-3-fluoroazetidine-1-carboxamide], the EC50 came to 28 nM in assay [1], 15 nM in assay [2], 5 nM in assay [3] and 42 nM in assay [4].

Consider `CN(C)c1cnc2nn(-c3cc(NC(=O)N4CCC4)ccc3F)cc2c1` [Compound 170, N-{3-[5-(dimethylamino)-2H-pyrazolo[3,4-b]pyridin-2-yl]-4-fluorophenyl}azetidine-1-carboxamide], for which the EC50 in assay [1] was 11 nM; in assay [2], 4.6 nM; in assay [3], less than 23 nM; in assay [4], 8 nM.

Take `O=C(Nc1ccc(F)c(-n2cc3cc(-c4ccc(F)cn4)cnc3n2)c1)N1CC(F)C1` [Compound 329, 3-fluoro-N-{4-fluoro-3-[5-(5-fluoropyridin-2-yl)-2H-pyrazolo[3,4-b]pyridin-2-yl]phenyl}azetidine-1-carboxamide]: the EC50 in assay [1] was found to be 2 nM; in assay [2], 1 nM; in assay [3], 2 nM; in assay [4] it was 1 nM.

In the case of `O=C(Nc1ccc(F)c(-n2cc3cc(N4CCOCC4)cnc3n2)c1)N1CC[C@@H](F)C1` [Compound 135, (3R)-3-fluoro-N-{4-fluoro-3-[5-(morpholin-4-yl)-2H-pyrazolo[3,4-b]pyridin-2-yl]phenyl}pyrrolidine-1-carboxamide], the EC50 in assay [1] was 8.6 nM; in assay [2], 6.6 nM; in assay [3] it was less than 23 nM; in assay [4] it was 4.6 nM.

For `CCOC1CC1C(=O)Nc1ccc(F)c(-n2cc3cc(C(C)C)cnc3n2)c1` (stereo not drawn) [Compound 207, 2-ethoxy-N-{4-fluoro-3-[5-(propan-2-yl)-2H-pyrazolo[3,4-b]pyridin-2-yl]phenyl}cyclopropane-1-carboxamide], the EC50 in assay [1] was found to be 2060 nM; in assay [2], 1270 nM; in assay [3] it was 1820 nM; in assay [4] it was 1830 nM.

As for `CCC(C)c1cnc2nn(-c3cc(NC(=O)N4CC[C@@H](F)C4)ccc3F)cc2c1` (stereo partly drawn) [Compound 50, (3R)-N-{3-[5-(butan-2-yl)-2H-pyrazolo[3,4-b]pyridin-2-yl]-4-fluorophenyl}-3-fluoropyrrolidine-1-carboxamide], the EC50 is 100 nM in assay [1], 79 nM in assay [2], less than 23 nM in assay [3] and 78 nM in assay [4].

For the compound `CC(C)c1cnc2nn(-c3cc(NC(=O)c4ccc(C#N)cn4)ccc3F)cc2c1` [Compound 84, 5-cyano-N-{4-fluoro-3-[5-(propan-2-yl)-2H-pyrazolo[3,4-b]pyridin-2-yl]phenyl}pyridine-2-carboxamide], the EC50 in assay [1] came to 6900 nM; in assay [2], 3700 nM; in assay [3] it was 2030 nM; in assay [4], 2400 nM.

By EC50 is commonly meant the concentration that produces a half-maximal response.
